Data as given in patent US4604355A, “Maltogenic amylase enzyme, preparation and use thereof” (Novo Industri A/S, priority 1983, dated 1986).

Target: T1, C599 maltogenic amylase from Bacillus strain C599 NCIB 11837 (Geobacillus stearothermophilus, UniProt P19531)
T1 construct: The enzyme is excreted into the medium; made in house; host or cells: Bacillus strain C599 (NCIB 11837), the natural producer; no recombinant host
T1 sequence (P19531 34-719): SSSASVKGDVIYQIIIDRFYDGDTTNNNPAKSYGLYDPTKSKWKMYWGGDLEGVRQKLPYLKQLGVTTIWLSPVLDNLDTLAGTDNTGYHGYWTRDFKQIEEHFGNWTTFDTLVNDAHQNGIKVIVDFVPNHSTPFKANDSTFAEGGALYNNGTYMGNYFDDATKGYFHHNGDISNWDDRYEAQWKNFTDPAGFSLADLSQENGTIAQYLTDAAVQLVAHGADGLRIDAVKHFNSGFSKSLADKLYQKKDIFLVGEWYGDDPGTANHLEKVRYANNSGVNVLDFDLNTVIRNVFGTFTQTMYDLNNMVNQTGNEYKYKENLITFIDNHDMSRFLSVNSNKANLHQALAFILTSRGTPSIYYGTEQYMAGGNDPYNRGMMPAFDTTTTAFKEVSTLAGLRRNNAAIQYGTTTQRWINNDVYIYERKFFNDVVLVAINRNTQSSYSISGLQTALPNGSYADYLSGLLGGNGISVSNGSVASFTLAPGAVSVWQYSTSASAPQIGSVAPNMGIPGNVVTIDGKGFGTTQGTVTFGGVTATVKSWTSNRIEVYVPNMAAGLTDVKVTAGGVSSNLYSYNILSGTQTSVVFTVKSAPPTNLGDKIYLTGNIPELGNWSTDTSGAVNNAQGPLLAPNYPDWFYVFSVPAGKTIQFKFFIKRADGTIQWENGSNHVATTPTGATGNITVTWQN
Experiment: Inhibition of C599-amylase (residual activity after incubation with inhibitors)
Type: biochemical
Details: None = 100
Method: One maltogenic amylase unit (U) is defined as the amount of enzyme which under standard conditions (temperature 60° C., pH 5.5, and reaction time 30 minutes) produces reducing sugar corresponding to 1 μmol maltose per minute.
A 0.5% soluble starch (supplied by Merck) in 0.1M acetate buffer or 0.05M phosphate buffer (pH 5) is incubated with 1 ml of the enzyme dissolved in deionized water containing 0.1-0.2 U per ml. The reaction is stopped after 30 minutes by addition of 4 ml 0.5N NaOH.
The content of reducing sugar is then determined by means of the Somogyi method (Somogyi: J.Biol.Chem., 153, p. 375-80 (1944).

SMILES | Residual activity after 60 min. at room temperature, % (inhibitor 1 mM) | Residual activity after 60 min. at room temperature, % (inhibitor 1%)
O=C(O)c1cc[c]([Hg][Cl])cc1 [PCMB, parachloromecuribenzoate] | 92% | 
OC[C@H]1O[C@@H]2O[C@H]3[C@H](O)[C@@H](O)[C@@H](O[C@H]4[C@H](O)[C@@H](O)[C@@H](O[C@H]5[C@H](O)[C@@H](O)[C@@H](O[C@H]6[C@H](O)[C@@H](O)[C@@H](O[C@H]7[C@H](O)[C@@H](O)[C@@H](O[C@H]1[C@H](O)[C@H]2O)O[C@@H]7CO)O[C@@H]6CO)O[C@@H]5CO)O[C@@H]4CO)O[C@@H]3CO [Schardinger-α-cyclodextrin] |  | 109%
OC[C@H]1O[C@@H]2O[C@H]3[C@H](O)[C@@H](O)[C@@H](O[C@H]4[C@H](O)[C@@H](O)[C@@H](O[C@H]5[C@H](O)[C@@H](O)[C@@H](O[C@H]6[C@H](O)[C@@H](O)[C@@H](O[C@H]7[C@H](O)[C@@H](O)[C@@H](O[C@H]8[C@H](O)[C@@H](O)[C@@H](O[C@H]1[C@H](O)[C@H]2O)O[C@@H]8CO)O[C@@H]7CO)O[C@@H]6CO)O[C@@H]5CO)O[C@@H]4CO)O[C@@H]3CO [Schardinger-β-cyclodextrin] |  | 107%
